Measured values: article PMC12061717, “Molecular characterization of a Minus-C odorant-binding protein from Cyrtotrachelus buqueti (Coleoptera: Curculionidae)” (Frontiers in Physiology, 2025)
Like-named read-outs stand apart in the source and are kept apart here. Each block holds one compound with its values, some of them ahead of it.

Experiments:
CbuqOBP1 [1] = molecular target: T1, CbuqOBP1 (Cyrtotrachelus buqueti, UniProt A0A1L3KPS8); experiment: Binding of fluorescent probe 1-NPN to CbuqOBP1 (titration, Scatchard plot); settings: 2 μM protein titrated with 1-NPN 2 to 40 μM, read-out: K 1-NPN (dissociation constant of CbuqOBP1/1-NPN complex)
Procedure: (§1) The fluorescence competition binding assays were carried out with a F-7000 fluorescence spectrophotometer (Hitachi, Tokyo, Japan) at room temperature using a 1 cm wide light-path fluorimeter quartz cuvette and 10 nm slits for both excitation and emission. The purified CbuqOBP1 was dissolved in 50 mM Tris–HCl buffer (pH 7.4) to a final concentration of 2 μM, while all ligands used in binding experiments were dissolved in chromatographic methanol to a final concentration of 1 mM.
N-phenyl-1-naphthylamine (1-NPN) (Aladdin Biochemical Technology Co., LTD., Shanghai, China) was used as the fluorescent probe. The probe was excited at 337 nm and emission spectra were recorded between 350 and 550 nm. […] Assuming that 1-NPN binds to the protein at a 1:1 ratio and that the protein was 100% active, a Scatchard plot analysis of the binding data was performed to calculate the dissociation constant (K d) of CbuqOBP1 with 1-NPN.

CbuqOBP1 [2] = molecular target: T1, CbuqOBP1; experiment: Fluorescence competition binding assay with 1-NPN as probe; settings: for Ki: K i = [IC50]/(1 + [1-NPN]/K 1-NPN), CbuqOBP1 and 1-NPN both 2 μM, pH 7.4
Procedure: as §1
N-phenyl-1-naphthylamine (1-NPN) (Aladdin Biochemical Technology Co., LTD., Shanghai, China) was used as the fluorescent probe. The probe was excited at 337 nm and emission spectra were recorded between 350 and 550 nm.
Based on the above studies, a total of nine candidate volatiles were selected as test ligands, including eight volatiles emitted by female adults of C. buqueti and the linalool released from the host plant N. affinis (Table 1). All these compounds were purchased from Aladdin Biochemical Technology Co., LTD. (Shanghai, China) with a purity of at least more than 90%. […] Binding data were collected as three independent measurements.

[3] = test system: Bradysia odoriphaga (Diptera) adults; parameters: method as in Li L. et al., 2013; Chen et al., 2014; settings: ref Li L. et al., 2013; Chen et al., 2014; cited from earlier work
[4] = test system: Xylotrechus rusticus (Coleoptera) adults; parameters: method as in Li L. et al., 2013; Chen et al., 2014; settings: ref Li L. et al., 2013; Chen et al., 2014; cited from earlier work
C. buqueti adults = test system: C. buqueti adults; parameters: method as in Cai, 2018; settings: previous behavioral studies; ref Cai, 2018; cited from earlier work
[5] = recombinant CbuqOBP1 and 1-NPN both 2 μM, 50 mM Tris-HCl pH 7.4, room temperature, read-out: IC50

T1 sequence (A0A1L3KPS8 entry or part of it): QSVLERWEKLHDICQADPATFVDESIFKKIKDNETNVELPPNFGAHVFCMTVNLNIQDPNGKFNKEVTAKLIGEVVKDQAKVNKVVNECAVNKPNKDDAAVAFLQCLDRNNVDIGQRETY

SMILES: c1ccc(Nc2cccc3ccccc23)cc1 [1-NPN, N-phenyl-1-naphthylamine]
Kd (CbuqOBP1 [1]): 24.2 µM

SMILES: C=C(C)[C@H]1CC=C(C)CC1 [(+)-Limonene]
IC50 (CbuqOBP1 [2]): 18.8 µM

SMILES: c1ccc2scnc2c1 [Benzothiazole]
IC50 (CbuqOBP1 [2]): 12 µM
attractiveness to adults [3]: highly attractive
attractiveness to adults [4]: highly attractive
attractant for adults (C. buqueti adults): efficient attractants

SMILES: C[C@@H]1CC[C@H]2C(C)(C)[C@H]3C[C@@]12CC[C@@]3(C)O [Cedrol]
IC50 (CbuqOBP1 [2]): 40.3 µM

Ki (CbuqOBP1 [2]): 19.5 µM
IC50 (CbuqOBP1 [2]; [5]): 21 µM
SMILES: CCCCCC(=O)OCC [Ethyl hexanoate]

SMILES: C=CC(C)(O)CCC=C(C)C (stereo not shown) [Linalool]
IC50 (CbuqOBP1 [2]): 14.5 µM

SMILES: Cc1cccc(C)c1 [M-xylene]
IC50 (CbuqOBP1 [2]): 36 µM

SMILES: Oc1ccccc1 [Phenol]
IC50 (CbuqOBP1 [2]): 11.4 µM
attractant for adults (C. buqueti adults): efficient attractants

SMILES: C=Cc1ccccc1 [Styrene]
IC50 (CbuqOBP1 [2]): 22.1 µM

Ki (CbuqOBP1 [2]): 22.4 µM
IC50 (CbuqOBP1 [2]; [5]): 24.3 µM
SMILES: CCCC/C=C/C=C/C=O [trans,trans-2,4-Nonadienal]
